Reference: article PMC4747042 (Molecular microbiology, 2009)

Target: T1, MenA (Mycobacterium tuberculosis, UniProt P9WIP3)
T1 sequence (P9WIP3 1-292): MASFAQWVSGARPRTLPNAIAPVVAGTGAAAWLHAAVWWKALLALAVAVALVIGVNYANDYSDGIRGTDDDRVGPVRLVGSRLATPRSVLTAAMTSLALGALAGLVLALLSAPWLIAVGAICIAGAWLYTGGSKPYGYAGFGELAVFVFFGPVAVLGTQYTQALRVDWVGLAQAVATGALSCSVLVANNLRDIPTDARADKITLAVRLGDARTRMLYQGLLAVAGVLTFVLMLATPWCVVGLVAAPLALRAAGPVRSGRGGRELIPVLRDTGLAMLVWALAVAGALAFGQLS
Assay type: biochemical

Work on `C=CCN(C)CCCCCCOc1ccc(C(=O)c2ccc(Br)cc2)c(F)c1` [Ro 48-8071] yielded an IC50 of 9 µM.
